Consider five compounds from patent US5374625A, “Adenine and guanine derivatives for the treatment of hepatitis virus infections” (priority 1990, dated 1994).

Converted amounts (≈) assume the structure as drawn.

Experiment [1] concerns Human Immonodeficiency Virus (HIV). In words: Antiviral activity against HIV (HTLV-IIIB strain) in MT-4 cells, HIV antigen-positive cells by indirect immunofluorescence. Conditions: Human immunodeficiency virus 1, MT4, 96 h, 4 days. The experiment is classed as cell-based, HTLV-IIIB strain of HIV. As for the experimental part:
Antiviral activity against Human Immonodeficiency Virus (HIV) belonging to RNA virus was examined by the following method: MT-4 cells […] in 0.5 ml of RPMI 1640 culture medium were seeded into 48-well plates, and 50 μl of test compounds were added to various concentrations. The cells were incubated at 37° C. for 2 hours in 5% (v/v) carbondioxide incubator. Then, 50 μl of the HTLV-IIIB strain of HIV (2.5×10^5 to 5×10^5 PFU/ml) was inoculated onto the cells. After 4 days, a part of the cells were applied onto a slide glass and immobilized with acetone. The percentages of HIV antigen-positive MT-4 cells were determined by indirect immunofluorescence assay. As the primary antibody, serum of AIDS patients was used. As the secondary antibody, FITC-labelled anti-human IgG was used.

Experiment [2] deals with hepatitis B virus (HBV). The experiment in a line: Antiviral activity against hepatitis B virus (HBV), viral DNA synthesis inhibition in HB611 cells. Conditions: 360 h, drug concentration required for 50% inhibition of viral DNA synthesis, densitometry, read-out: Anti-HBV activity ID50. It is filed as cell-based. As for the experimental part: Antiviral activity against hepatitis B virus (HBV) which is a DNA virus was tested by the following method.
The test was done by using a cell line, HB611, that was established by transfection and continuously produces HBV-like particles [Proc. Natl. Acad. Sci. USA, 84, 444-449, 1987]. HB611 cells were maintained in Dulbecco's modified Eagle medium (Gibco) supplemented with fetal bovine serum (Gibco), 100 μg/ml of streptomycin, […] of benzyl penicillin (Gibco) and 200 μg/ml of geneticin (Gibco) at 37° C. in 5% CO2 -95% air.
The cells were seeded in 24-well plate (Corning) at a density of 3×10^4 cells/well, using 1.0 ml of the medium. After 2 days of incubation, the medium was replaced with the same medium containing the test compound. The cells were incubated for a further 15 days, during which time the medium containing the drug was exchanged every three days. […]
The results which was autoradiographed were analyzed using a densitometric analyzer (Shimadzu, Chromatoscana S930).
To quantitatively evaluate the inhibitory activity of the compounds, there were measured the band areas S, D, D2 (S, D1 and D2 represent intracellular free HBV DNA derived from replicative intermediates) and I (represents chromosomally integrated HBV DNA) by densitometric analyzer, and calculated the inhibition percentage as follows: [formula] […]

Experiment [3] relates to Herpes simplex virus (HSV-1). In words: Antiviral activity against Herpes simplex virus (HSV-1), CPE inhibition in Vero cells (Neutral Red). Conditions: Human alphaherpesvirus 1, 50% inhibition of CPE, about 72 hours. It is filed as cell-based. As for the experimental part: Antiviral activity against Herpes simplex virus (HSV-1) which is a DNA virus was tested by the following method.
Vero cells (originated from kidney cells of African Green Monkey) were cultured in MEM medium supplemented with 10% fetal bovine serum. One hundred μl of cell suspension (200,000 cells/ml) was plated into 96 wells plates (COSTAR) and cultured for 24 hours so that the culture became confluent. The medium was drawn, and cells were infected with HSV-1 virus for one hour. After drawing the virus fluid, cells were cultured for about 72 hours in a fresh medium containing test samples. The survived cells were stained with Neutral Red solution and absorbance at a wavelength of 546 nm (A546) was measured to evaluate the cytopathic effect (CPE).
CPE inhibition (%) was calculated as follows: [formula] Sample concentration required for 50% inhibition of the CPE was calculated as IC50 (μg/ml).

With `Nc1ncnc2c1ncn2[C@@H]1C[C@H](CO)[C@@H](CO)C[C@H]1O` [Example 13, 9-[(1R,2R,4S,5S)-4,5-Bis(hydroxymethyl)-2-hydroxycyclohexyl]-adenine], the IC50 in experiment [1] was found to be 55 µg/mL (≈ 188 µM).

Take `Nc1ncnc2c1ncn2[C@@H]1CC[C@H](CO)[C@H]1CO` [Example 5, 9-[(1R,2R,3S)-2,3-Bis(hydroxymethyl)-1-cyclopentyl]-adenine]: the IC50 in experiment [2] amounted to 0.24 µg/mL (≈ 0.912 µM).

In experiment [3], `Nc1nc2c(ncn2[C@@H]2C[C@H](CO)[C@@H](CO)C[C@H]2O)c(=O)[nH]1` [Example 18, 9-[(1R,2R,4S,5S)-4,5-Bis(hydroxymethyl)-2-hydroxycyclohexyl]-guanine] came in with an IC50 of 45.9 µg/mL (≈ 148 µM).

`Nc1ncnc2c1ncn2[C@H]1CC[C@H](CO)[C@@H](CO)C1` [Example 16, 9-[(1S,3S,4S)-3,4-Bis(hydroxymethyl)-cyclohexyl]-adenine] came in with an IC50 in experiment [1] of 4.5 µg/mL (≈ 16.2 µM).

`Nc1nc2c(ncn2[C@H]2CC[C@H](CO)[C@@H](CO)C2)c(=O)[nH]1` [Example 21, 9-[(1S,3S,4S)-3,4-Bis(hydroxymethyl)-cyclohexyl]-guanine]: the IC50 in experiment [3] was determined as 2.77 µg/mL (≈ 9.44 µM).
